Results taken from ChEMBL document CHEMBL1124518, “Nonsteroidal cardiotonics. 2. The inotropic activity of linear, tricyclic 5-6-5 fused heterocycles” (1989).

Columns and labels:
[1] = organism: Rattus norvegicus; assay: Effective dose required to produce an increase in dP/dt5 by 1500 mmHg/s in rats; assay type: functional
[2] = organism: Felis catus; assay: Effective dose required to produce an increase in dP/dt5 by 1500 mmHg/s in cats; assay type: functional
[3] = system: Felis catus; assay: Maximum increase in dP/dt when administered intravenously in cats at 3 mg/kg.; assay type: functional; settings: route intravenous
[4] = system: Canis familiaris; assay: Maximum increase in dP/dt when administered intravenously in dogs at 1 mg/kg dose.; assay type: functional, Canis lupus familiaris; settings: route intravenous
[5] = system: Canis familiaris; assay: Amount of time during which increase in administered orally in conscious dogs at 1 mg/kg; assay type: functional, Canis lupus familiaris; settings: route oral
[6] = system: Canis familiaris; assay: Time after which maximum increase in contractility was observed when administered orally in conscious dogs at 1 mg/kg; assay type: functional, Canis lupus familiaris; settings: route oral
[7] = system: Rattus norvegicus; assay: Maximum increase in dP/dt when administered intravenously in rats at 10 mg/kg dose.; assay type: functional; design: unit not given here; settings: route intravenous
[8] = organism: Canis familiaris; assay: Effective dose required to produce an increase in dP/dt5 by 1500 mmHg/s in dogs; assay type: functional, Canis lupus familiaris
[9] = system: Rattus norvegicus; assay: Maximum increase in dP/dt when administered intravenously in rats at 1 mg/kg dose.; assay type: functional; design: unit not given here; settings: route intravenous
[10] = system: Canis familiaris; assay: Maximum increase in dP/dt when administered intravenously in dogs at 0.03 mg/kg dose.; assay type: functional, Canis lupus familiaris; settings: route intravenous
[11] = system: Canis familiaris; assay: Maximum increase in dP/dt60 when administered orally in dogs at dose 1 mg/kg; assay type: functional, Canis lupus familiaris; settings: route oral
[12] = system: Felis catus; assay: Maximum increase in dP/dt when administered intravenously in cats at 0.1 mg/kg dose.; assay type: functional; settings: route intravenous
[13] = system: Canis familiaris; assay: Maximum increase in dP/dt when administered intravenously in dogs at 1 mg/kg.; assay type: functional, Canis lupus familiaris; settings: route intravenous
[14] = system: Rattus norvegicus; assay: Maximum increase in dP/dt when administered intravenously in rats at 3 mg/kg dose.; assay type: functional; settings: route intravenous
[15] = system: Canis familiaris; assay: Maximum increase in dP/dt when administered intravenously in dogs at 0.3 mg/kg dose.; assay type: functional, Canis lupus familiaris; settings: route intravenous
[16] = system: Canis familiaris; assay: Maximum increase in dP/dt when administered intravenously in dogs at 0.1 mg/kg.; assay type: functional, Canis lupus familiaris; settings: route intravenous
[17] = system: Felis catus; assay: Maximum increase in dP/dt when administered intravenously in cats at 0.03 mg/kg dose.; assay type: functional; settings: route intravenous
[18] = system: Rattus norvegicus; assay: Maximum increase in dP/dt when administered intravenously in rats at 0.1 mg/kg dose.; assay type: functional; settings: route intravenous
[19] = system: Felis catus; assay: Maximum increase in dP/dt when administered intravenously in cats at 3 mg/kg dose.; assay type: functional; settings: route intravenous
[20] = system: Canis familiaris; assay: Maximum increase in dP/dt60 when administered orally in dogs at dose 0.5 mg/kg; assay type: functional, Canis lupus familiaris; settings: route oral
[21] = system: Canis familiaris; assay: Amount of time during which increase in administered orally in conscious dogs at 0.5 mg/kg; assay type: functional, Canis lupus familiaris; settings: route oral
[22] = system: Canis familiaris; assay: Time after which maximum increase in contractility was observed when administered orally in conscious dogs at 0.5 mg/kg; assay type: functional, Canis lupus familiaris; settings: route oral

SMILES | ED1.5 [1] [mg/kg] | ED1.5 [2] [mg/kg] | Duration [5] [h] | Time [6] [min] | ED1.5 [8] [mg/kg] | further results
CC1(C)C(=O)Nc2cc3[nH]c(N)nc3cc21 | >3 |  |  |  |  | 
Cc1nc2cc3c(cc2[nH]1)C(C)(C)C(=O)N3 | 0.48 | 0.17 | 3 | 30 | 0.46 | Max [3]: 2.8 mHg/s; Max [4]: 2.2 mHg s-1; Max [7]: 3.5
CC1(C)C(=O)Nc2cc3[nH]c(-c4cnsn4)nc3cc21 | 0.007 | 0.004 | 3 | 10 | 0.008 | Max [9]: 3.5; Max [10]: 2.3 mmHg s-1; Max [11]: 3 mmHg s-1; Max [12]: 2.6 mmHg s-1
Cn1c(O)nc2cc3[nH]c(-c4ccncc4)nc3cc21 | 0.33 | 0.01 | 0 |  | 0.12 | Max [13]: 2.9 mmHg s-1; Max [7]: 2.6
CC1(C)C(=O)Nc2cc3[nH]c(-c4cncnc4)nc3cc21 | 0.045 | 0.02 |  |  |  | Max [14]: 3.1 mHg s-1
Oc1nc2cc3[nH]c(-c4ccncc4)nc3cc2[nH]1 | >3 |  |  |  |  | 
CN1C(=O)C(C)(C)c2cc3nc(-c4ccncc4)n(C)c3cc21 | >3 |  |  |  |  | 
Oc1nc2cc3nc(-c4ccncc4)[nH]c3cc2o1 | 0.52 | 0.06 | 0 |  | 0.12 | Max [15]: 2.6 mHg/s; Max [7]: 4.1
CC1(C)C(=O)Nc2cc3[nH]c(-c4c[nH]cn4)nc3cc21 | 0.12 |  | 2 | 120 | 0.07 | Max [4]: 2.7 mHg s-1
COc1cc(S(C)(=O)=O)ccc1-c1nc2cc3c(cc2[nH]1)C(C)(C)C(=O)N3 | 2 |  |  |  |  | Max [14]: 1.8 mHg s-1
CC1(C)C(=O)Nc2cc3[nH]c(-c4ccnnc4)nc3cc21 | 0.04 | 0.01 | 5 | 150 | 0.035 | Max [16]: 2.6 mmHg s-1; Max [11]: 2.3 mmHg s-1; Max [17]: 2.4 mmHg s-1
Cc1nc2cc3nc(O)oc3cc2[nH]1 | >3 |  |  |  |  | 
CC1(C)C(=O)Nc2cc3[nH]c(C4CCCCC4)nc3cc21 | >3 |  |  |  |  | 
CC1(C)C(=O)Nc2cc3[nH]c(-c4ccncc4)nc3cc21 [ADIBENDAN] | 0.01 | 0.01 | > 6 | 45 | 0.2 | Max [18]: 3.7 mmHg s-1; Max [4]: 2 mHg s-1
CC1(C)C(=O)Nc2cc3[nH]c(-c4ccc(O)nn4)nc3cc21 | 0.07 |  |  |  |  | Max [14]: 3.3 mHg s-1
CC1(C)C(=O)Nc2cc3[nH]c(-c4ccnnc4)cc3cc21 |  | 0.01 |  |  |  | 
Cc1cc2cc3c(cc2[nH]1)NC(=O)C3(C)C | >3 |  |  |  |  | 
CC1(C)C(=O)Nc2cc3[nH]c(-c4ccc[nH]4)nc3cc21 | 0.45 | 0.07 |  |  | 0.32 | Max [4]: 1.9 mHg s-1; Max [7]: 2.6; Max [19]: 2.3 mmHg s-1
CC1(C)C(=O)Nc2cc3nc(O)oc3cc21 | >3 |  |  |  |  | 
CC1(C)C(=O)Nc2cc3[nH]c(-c4ccco4)nc3cc21 | 0.07 | 0.06 | 2 | 40 | 0.06 | Max [14]: 2.9 mHg s-1; Max [15]: 2.7 mHg/s
CC1(C)C(=O)Nc2cc3[nH]c(O)nc3cc21 | 0.13 | 0.08 | > 6 | 45 | 0.12 | Max [20]: 1.6 mHg s-1; Max [9]: 3; Max [15]: 2 mHg/s; Duration [21]: 6 h; Max [19]: 2.9 mmHg s-1; Time [22]: 60 min
CC1(C)C(=O)Nc2cc3[nH]c(C(F)(F)F)nc3cc21 | 0.13 | 0.08 |  |  |  | Max [14]: 2.3 mHg s-1
CC1(C)C(=O)Nc2cc3[nH]c(-c4nc[nH]n4)nc3cc21 | 0.1 | 0.02 |  |  |  | Max [14]: 3.1 mHg s-1
C/C=C/c1nc2cc3c(cc2[nH]1)C(C)(C)C(=O)N3 | >3 |  |  |  |  | 
CC1(C)C(=O)Nc2cc3[nH]c(-c4ccccc4)nc3cc21 | 0.37 | 0.15 | 0 |  |  | Max [7]: 4.2; Max [19]: 3 mmHg s-1
Cn1c(O)nc2cc3c(cc21)C(C)(C)C(=O)N3 | 0.03 | 0.02 | > 5 | 30 |  | Max [18]: 2.4 mmHg s-1; Max [12]: 2.1 mmHg s-1
COc1ccc(-c2nc3cc(C4=NNC(=O)CC4C)ccc3[nH]2)cc1 (stereo not drawn) [PIMOBENDAN] | 1.3 | 0.6 | 6 | 30 | 1.1 | Max [14]: 2 mHg s-1; Max [4]: 1.3 mHg s-1
